In patent US8399502B2, “Analogs of indole-3-carbinol and their use as agents against infection” (priority 2008, dated 2013):
Values after ≈ are worked out from the molar mass of the structure shown.

Experiments:
Assay in all cases: microbe, parasite or virus in culture
Type in all cases: cell-based
[1] = tested on: Francisella tularensis (FT; Gram-negative); conditions: read-out: MIC FT
[2] = tested on: Bacillus anthracis (BA; Gram-positive); conditions: read-out: MIC BA
[3] = tested on: methicillin-susceptible Staphylococcus aureus (MSSA); conditions: read-out: MIC MSSA
[4] = tested on: methicillin-resistant Staphylococcus aureus (MRSA); conditions: read-out: MIC MRSA
[5] = tested on: penicillin-susceptible S. pneumoniae (PSSP); conditions: Streptococcus pneumoniae, read-out: MIC PSSP
[6] = tested on: penicillin-resistant S. pneumoniae (PRSP); conditions: Streptococcus pneumoniae, read-out: MIC PRSP
[7] = tested on: Mycobacteruim tuberculosis H37Rv (H37Rv); conditions: Mycobacterium tuberculosis, read-out: MIC against Tubercle bacillus
[8] = tested on: Yersinia pestis (YP; Gram-negative); conditions: read-out: MIC YP
[9] = tested on: Brucella abortus (BAB; Gram-negative); conditions: read-out: MIC BAB
[10] = tested on: Burkholderia mallei (BM; Gram-negative); conditions: read-out: MIC BM
[11] = tested on: Burkholderia pseudomallei (BP; Gram-negative); conditions: read-out: MIC BP

## c1ccc2[nH]c(Cc3cc4ccccc4[nH]3)cc2c1
[1]
  MIC: 4 µg/mL (≈ 16.2 µM)
[2]
  MIC: 16 µg/mL (≈ 65 µM)
[3]
  MIC: 16 µg/mL (≈ 65 µM)
[4]
  MIC: 32 µg/mL (≈ 130 µM)
[5]
  MIC: 1 µg/mL (≈ 4.06 µM)
[6]
  MIC: 2 µg/mL (≈ 8.12 µM)

## N=C(N)NCCCOc1c2[nH]c3ccc(F)cc3c2cc2c1[nH]c1ccc(F)cc12 [drawing 277]
[7]
  MIC: 10 µg/mL (≈ 24.5 µM)

## Cc1c2[nH]c3ccccc3c2cc2c1[nH]c1ccccc12 [drawing 263]
[1]
  MIC: ≤ 0.5 µg/mL
[2]
  MIC: 1 µg/mL (≈ 3.7 µM)
[3]
  MIC: 2 µg/mL (≈ 7.4 µM)
[4]
  MIC: 4 µg/mL (≈ 14.8 µM)
[5]
  MIC: 1 µg/mL (≈ 3.7 µM)
[6]
  MIC: 1 µg/mL (≈ 3.7 µM)

## N=C(N)NCCCOc1c2[nH]c3ccc(Cl)cc3c2cc2c1[nH]c1ccc(Cl)cc12 [drawing 274]
[7]
  MIC: 10 µg/mL (≈ 22.7 µM)

## Fc1ccc2[nH]c3c(O[C@@H]4CCNC4)c4[nH]c5ccc(F)cc5c4cc3c2c1 [drawing 279]
[7]
  MIC: 10 µg/mL (≈ 26.5 µM)

## OC1CCN(CCCOc2c3[nH]c4ccc(Cl)cc4c3cc3c2[nH]c2ccc(Cl)cc23)CC1 [drawing 275]
[7]
  MIC: 10 µg/mL (≈ 20.7 µM)

## Fc1ccc2[nH]c3c(OCCCNC4=NCCN4)c4[nH]c5ccc(F)cc5c4cc3c2c1 [drawing 278]
[7]
  MIC: 10 µg/mL (≈ 23.1 µM)

## CN(C)CC#Cc1c2[nH]c3ccc(F)cc3c2cc2c1[nH]c1ccc(F)cc12 [drawing 273]
[7]
  MIC: 10 µg/mL (≈ 26.8 µM)

## CCOC(=O)Oc1c2[nH]c3ccccc3c2cc2c1[nH]c1ccccc12
[1]
  MIC: ≤ 0.5 µg/mL
[2]
  MIC: 4 µg/mL (≈ 11.6 µM)
[3]
  MIC: 4 µg/mL (≈ 11.6 µM)
[4]
  MIC: 4 µg/mL (≈ 11.6 µM)
[5]
  MIC: 4 µg/mL (≈ 11.6 µM)
[6]
  MIC: 2 µg/mL (≈ 5.81 µM)

## CCOC(=O)c1ccc2[nH]cc(Cc3c(C)[nH]c4ccccc34)c2c1
[1]
  MIC: 4 µg/mL (≈ 12 µM)
[2]
  MIC: 8 µg/mL (≈ 24.1 µM)
[3]
  MIC: > 64 µg/mL
[4]
  MIC: > 64 µg/mL
[5]
  MIC: 2 µg/mL (≈ 6.02 µM)
[6]
  MIC: 8 µg/mL (≈ 24.1 µM)

## Cc1c2[nH]c3ccccc3c2cc2c1[nH]c1ccccc12 [drawing 281]
[7]
  MIC: 10 µg/mL (≈ 37 µM)

## C=C(c1c[nH]c2ccccc12)c1c[nH]c2ccccc12
[1]
  MIC: 16 µg/mL (≈ 61.9 µM)
[2]
  MIC: 8 µg/mL (≈ 31 µM)
[3]
  MIC: 8 µg/mL (≈ 31 µM)
[4]
  MIC: 8 µg/mL (≈ 31 µM)
[5]
  MIC: 4 µg/mL (≈ 15.5 µM)
[6]
  MIC: 2 µg/mL (≈ 7.74 µM)

## c1ccc2[nH]c(Cc3c[nH]c4ccccc34)cc2c1
[1]
  MIC: 4 µg/mL (≈ 16.2 µM)
[2]
  MIC: 16 µg/mL (≈ 65 µM)
[3]
  MIC: 32 µg/mL (≈ 130 µM)
[4]
  MIC: 32 µg/mL (≈ 130 µM)
[5]
  MIC: 8 µg/mL (≈ 32.5 µM)
[6]
  MIC: 1 µg/mL (≈ 4.06 µM)

## CN(C)CCOc1c2[nH]c3ccc(F)cc3c2cc2c1[nH]c1ccc(F)cc12 [drawing 272]
[7]
  MIC: 5 µg/mL (≈ 13.2 µM)

## CNCCOc1c2[nH]c3ccc(F)cc3c2cc2c1[nH]c1ccc(F)cc12
[1]
  MIC: 0.5 µg/mL (≈ 1.37 µM)
[2]
  MIC: 1 µg/mL (≈ 2.74 µM)
[8]
  MIC: 8 µg/mL (≈ 21.9 µM)
[9]
  MIC: 0.5 µg/mL (≈ 1.37 µM)
[10]
  MIC: 4 µg/mL (≈ 10.9 µM)
[11]
  MIC: 16 µg/mL (≈ 43.8 µM)

## Cc1onc(-c2ccccc2)c1C(=O)N[C@@H]1C(=O)N2[C@@H]1SC(C)(C)[C@@H]2C(=O)O [Oxacillin, oxacillin, reference compound]
[1]
  MIC: > 64 µg/mL
[2]
  MIC: 0.8 µg/mL (≈ 1.99 µM)
[4]
  MIC: > 64 µg/mL
[5]
  MIC: 0.1 µg/mL (≈ 0.249 µM)

## CC/N=C(/NCCCOc1c2[nH]c3ccc(Cl)cc3c2cc2c1[nH]c1ccc(Cl)cc12)NCCCN(C)C
[1]
  MIC: 1 µg/mL (≈ 1.81 µM)
[2]
  MIC: ≤ 0.25 µg/mL
[8]
  MIC: 1 µg/mL (≈ 1.81 µM)
[9]
  MIC: 1 µg/mL (≈ 1.81 µM)
[10]
  MIC: 4 µg/mL (≈ 7.23 µM)
[11]
  MIC: 4 µg/mL (≈ 7.23 µM)

## Fc1ccc2[nH]c3c(OCCCNC4=NCCN4)c4[nH]c5ccc(F)cc5c4cc3c2c1 [drawing 234]
[1]
  MIC: 2 µg/mL (≈ 4.61 µM)
[2]
  MIC: 1 µg/mL (≈ 2.31 µM)
[8]
  MIC: 8 µg/mL (≈ 18.5 µM)
[9]
  MIC: 2 µg/mL (≈ 4.61 µM)
[10]
  MIC: 8 µg/mL (≈ 18.5 µM)
[11]
  MIC: > 8 µg/mL

## COc1c2[nH]c3ccc(F)cc3c2cc2c1[nH]c1ccc(F)cc12 [drawing 194]
[1]
  MIC: 0.5 µg/mL (≈ 1.55 µM)
[2]
  MIC: 1 µg/mL (≈ 3.1 µM)
[8]
  MIC: > 16 µg/mL
[9]
  MIC: 1 µg/mL (≈ 3.1 µM)
[10]
  MIC: > 16 µg/mL
[11]
  MIC: > 16 µg/mL

## NCCCOc1c2[nH]c3ccc(F)cc3c2cc2c1[nH]c1ccc(F)cc12
[1]
  MIC: 0.5 µg/mL (≈ 1.37 µM)
[2]
  MIC: 0.5 µg/mL (≈ 1.37 µM)
[8]
  MIC: 2 µg/mL (≈ 5.47 µM)
[9]
  MIC: 0.5 µg/mL (≈ 1.37 µM)
[10]
  MIC: 8 µg/mL (≈ 21.9 µM)
[11]
  MIC: 8 µg/mL (≈ 21.9 µM)

## Clc1ccc2[nH]c3c(OCCCNCc4c[nH]c5ccccc45)c4[nH]c5ccc(Cl)cc5c4cc3c2c1
[1]
  MIC: 1 µg/mL (≈ 1.9 µM)
[2]
  MIC: 1 µg/mL (≈ 1.9 µM)
[8]
  MIC: 2 µg/mL (≈ 3.79 µM)
[9]
  MIC: 0.5 µg/mL (≈ 0.948 µM)
[10]
  MIC: > 8 µg/mL
[11]
  MIC: > 8 µg/mL

## Fc1ccc2[nH]c3c(OC4CCCNC4)c4[nH]c5ccc(F)cc5c4cc3c2c1 (stereo not drawn)
[1]
  MIC: 1 µg/mL (≈ 2.55 µM)
[2]
  MIC: 0.5 µg/mL (≈ 1.28 µM)
[8]
  MIC: 4 µg/mL (≈ 10.2 µM)
[9]
  MIC: 0.5 µg/mL (≈ 1.28 µM)
[10]
  MIC: 8 µg/mL (≈ 20.4 µM)
[11]
  MIC: > 8 µg/mL
